Bridges are numbered along the chain shown (N, C = ends).
Key:
serum cytokines = test: Serum cytokine array after sub-chronic treatment of submissive mice; format: in vivo
Description: Submissive mice are derivates from “Sabra” strain were maintained under a 12 h light/12 h dark cycle with Purina rodent chow (Envigo, Israel) and water provided ad libitum. The animals were housed five per cage. All procedures with animals were performed after review and approval by the Institutional Animal Care and Use Committee of Ariel University.
Blood samples of submissive mice treated with control, as well as 10 and 30 mg/kg of ALOS4 were collected by terminal bleeding from the heart and centrifuged at 14,000 rpm for 20 min. Serum was removed to a new tube and stored at −80° C. for future use. Mouse XL Cytokine Array Kit (Cat #ARYO28, R&D) was used to detect the cytokines in the serum of submissive mice according to the manufacturer's instructions. Serum from treatment groups (saline, 10 and 30 mg/kg ALOS4) was added to each membrane. Streptavidin-HRP and Chemi Reagent Mix were used to detect the antibodies bound to the membrane. The membranes were then exposed (Image Quant LAS4000 mini; GE Healthcare, Milwaukee, WI, USA) and analyzed using ImageQuant TL software (GE Healthcare).

[1] = test system: interferon type I signaling; test: ISRE response, HT1080 ISRE mCherry reporter cells stimulated with Poly I:C; format: cell-based; details: pretreatment with 0.3 μM for 48 h, FIG. 1A, 1C
Description: (§1) HT1080 cells transfected with mCherry reporter under an ISRE (Interferon-Sensitive Response Element) promoter and HCT116 with Luc reporter under ISRE promoter were used. Raw 264.7 (undifferentiated murine macrophages) cell line was also used. The cells were cultured in appropriate media: Dulbecco's Modified Eagle Medium (DMEM) (Cat #41965-039, Gibco) with 4.5 g/l glucose and L-glutamine augmented with 10% FBS (Gibco, Grand Island, NY), 100 U/ml penicillin and 100 μg/ml streptomycin in a humidified atmosphere at 37° C. with 5% CO2.
HT1080 ISRE mCherry cells were plated in 6-well plates at 2×10^4 cells/well. […] Following the 48 hour incubation, 25 μg/well of Polyinosinic:polycytidylic acid (Poly I:C)—a chemical compound structurally similar to double-stranded RNA and acting via Toll Like Receptor-3 molecular pathway activation, was added for an additional 16 h incubation. After this second incubation, cells were subjected to fluorescent imaging followed by washing with 1×PBX, trypsinization and resuspension with 300 μl of 1×PBS. 200 μl of cell suspension were further loaded into 96-well black clear bottom plates. Strength of mCherry fluorescence signal was detected by an ELISA reader with multiple reads per well at 574Ex/610Em.

[2] = test system: crown-like structures (macrophages) in adipose tissue; test: Crown-like structures in adipose tissue (H&E histology) of submissive mice; format: in vivo; details: sub-chronic 10 and 30 mg/kg, H&E staining, FIG. 2C
Description: The adipose tissue of submissive mice treated with 10 and 30 mg/kg of ALOS4 were excised and fixed with 4% formalin overnight at 4° C., followed by dehydration and paraffin embedding (Cat #BN0763, Barnaor). Serial sections of 5 μm thickness were cut and placed on charged glass slides (LE-14035838925, Leica, Germany) and incubated for 1 h at 60° C. At least three slides from each adipose tissue sample with 300 μm distance between sections were collected for histological staining. Prior to Hematoxylin and Eosin (H&E), all sections were subjected to de-paraffinized and hydrated by decreasing concentrations of ethanol in deionized water.
De-paraffinized and hydrated slides were immersed in Meyer's Hematoxylin solution (Cat #HX68597049, MERCK) for 5 min, washed for 5 min with tap water, and then immersed in Eosin solution (Cat #HX6109259, MERCK) for 2 min, rehydrated and mounted with Entalain.
Macrophages were evaluated by a scoring system using light microscopy. A score of 1 is characterized by the absence of crown like structures in framed field, 10-20 crowns characterize the score of 2, a score of 3—20-30 crown like structures, a score of 4—30-40 crowns and a score of 5—abundant crowns (40-50).

Raw267.4 cells = test: Nitric oxide level assay, LPS-induced macrophage differentiation; format: cell-based, mouse; details: FIG. 2D
Description: Ability of ALOS4 to affect macrophage differentiation to pro- and anti-inflammatory macrophages was evaluated on mouse monocyte macrophages (Raw267.4) using the nitric oxide level assay. Cells were plated at a density of 1×10^5 cells/ml in 12 well plates for 12 h, followed by treatment with LPS (200 ng/ml) and ALOS4 (0.3 and 30 μM). Nitric oxide production of monocyte differentiation to pro-inflammatory M1 was detected with Griess reaction kit (Cat #G2930, Promega) according to the protocol. The absorbance was read at 540 nm with ELISA plate reader (Tecan infinite M200pro, Switzerland) and nitric oxide concentration was calculated using the Nitrite Standard Reference Curve.

[3] = test system: interferon type I signaling; test: ISRE response, HCT116 ISRE Luc reporter cells stimulated with Poly I:C; format: cell-based; details: pretreatment with 0.3 μM for 48 h, FIG. 1B
Description: as §1
HCT116 ISRE Luc cells were plated in 96-well plates at 3×10^3 cells/well. The next day DMEM was replaced with DMEM containing 0.3 μM of ALOS4 or saline as control with/without PEI—transfection reagent, and cells continued to grow for 48 h. Following the 48 h incubation 1 μg/ml of Poly I:C was added for an additional 16 h incubation. After this second incubation the media was removed, 30 μl of Bright-Glo™ Luciferase Assay System (Promega, Cat #E2610) was added. Plate was read with plate reader on Luminescent parameters.

[4] = 10 and 30 mg/kg i.v., every second day within 10 days, FIG. 2A

For “H-cycl (Cys-Ser-Ser-Ala-Gly-Ser-Leu-Phe-Cys)-OH (H-CSSAGSLFC-OH; disulfide 1-9 (inferred)) [ALOS4]”, the IL-1α/IL-1F1 in blood (serum cytokines; [4]) was “did not change”, the “total interleukins in blood as compared to the control group” value (serum cytokines; [4]) was “downregulation” and the “pro-inflammatory markers (Jak-STAT signaling pathway) in serum” value (serum cytokines; sub-chronic 10 and 30 mg/kg, FIG. 2B) was “strong tendency toward down-regulation”. For the same substance, the “ability of cells to induce interferon type I signaling in response to Poly I:C (mCherry fluorescence)” value [1] was “suppressed”, the “frequency of crown-like structures in fat pads” value [2] was “a decrease in frequency was observed” and the “nitric oxide (indicator of differentiation to pro-inflammatory macrophages)” value (Raw267.4 cells; LPS-induced, one-way ANOVA p<0.01 and p<0.001) was “significant dose-dependent decrease”. For the same substance, the “differentiation of macrophages to pro-inflammatory M1” value (Raw267.4 cells; Raw267.4 cells, LPS 200 ng/ml, 0.3 and 30 μM for 24 hours) was “inhibited differentiation of the macrophages to pro-inflammatory M1 in a dose dependent manner” and the “ability of cells to induce interferon type I signaling in response to Poly I:C (luciferase)” value [3] was “suppressed”.

From patent US12115207B2, “Treatment of inflammation” (Ariel Scientific Innovations Ltd., priority 2019, dated 2024)
